Results from ChEMBL document CHEMBL1137797, “Differential inhibition of reverse transcriptase and various DNA polymerases by digallic acid and its derivatives” (J Nat Prod, 1990).
Activity calls are given as the source filed them. The rule behind the calls is not given here.

Assays:
[1] = system: Rauscher murine leukemia virus; test: Inhibition of Rauscher murine leukemia virus reverse transcriptase activity
[2] = system: Human immunodeficiency virus; test: Inhibition of HIV reverse transcriptase activity expressed in Escherichia coli
[3] = system: Human immunodeficiency virus; test: Inhibition of HIV reverse transcriptase expressed in Escherichia coli assessed as mixed-type inhibition using (rA)n.(dT)12-18 as primer by double reciprocal plot
[4] = system: Human immunodeficiency virus; test: Inhibition of HIV reverse transcriptase expressed in Escherichia coli assessed as non-competitive inhibition using dTTP as primer by double reciprocal plot
[5] = system: Rauscher murine leukemia virus; test: Inhibition of Rauscher murine leukemia virus reverse transcriptase assessed as incorporation of [3H]dTMP at 0.2 ug/ml
[6] = biological target: T1, DNA polymerase alpha catalytic subunit (Homo sapiens) (UniProt P09884); test: Inhibition of DNA polymerase alpha from human KB3 cells assessed as non-competitive type inhibition using dNTP as substrate
T1 sequence (whole entry): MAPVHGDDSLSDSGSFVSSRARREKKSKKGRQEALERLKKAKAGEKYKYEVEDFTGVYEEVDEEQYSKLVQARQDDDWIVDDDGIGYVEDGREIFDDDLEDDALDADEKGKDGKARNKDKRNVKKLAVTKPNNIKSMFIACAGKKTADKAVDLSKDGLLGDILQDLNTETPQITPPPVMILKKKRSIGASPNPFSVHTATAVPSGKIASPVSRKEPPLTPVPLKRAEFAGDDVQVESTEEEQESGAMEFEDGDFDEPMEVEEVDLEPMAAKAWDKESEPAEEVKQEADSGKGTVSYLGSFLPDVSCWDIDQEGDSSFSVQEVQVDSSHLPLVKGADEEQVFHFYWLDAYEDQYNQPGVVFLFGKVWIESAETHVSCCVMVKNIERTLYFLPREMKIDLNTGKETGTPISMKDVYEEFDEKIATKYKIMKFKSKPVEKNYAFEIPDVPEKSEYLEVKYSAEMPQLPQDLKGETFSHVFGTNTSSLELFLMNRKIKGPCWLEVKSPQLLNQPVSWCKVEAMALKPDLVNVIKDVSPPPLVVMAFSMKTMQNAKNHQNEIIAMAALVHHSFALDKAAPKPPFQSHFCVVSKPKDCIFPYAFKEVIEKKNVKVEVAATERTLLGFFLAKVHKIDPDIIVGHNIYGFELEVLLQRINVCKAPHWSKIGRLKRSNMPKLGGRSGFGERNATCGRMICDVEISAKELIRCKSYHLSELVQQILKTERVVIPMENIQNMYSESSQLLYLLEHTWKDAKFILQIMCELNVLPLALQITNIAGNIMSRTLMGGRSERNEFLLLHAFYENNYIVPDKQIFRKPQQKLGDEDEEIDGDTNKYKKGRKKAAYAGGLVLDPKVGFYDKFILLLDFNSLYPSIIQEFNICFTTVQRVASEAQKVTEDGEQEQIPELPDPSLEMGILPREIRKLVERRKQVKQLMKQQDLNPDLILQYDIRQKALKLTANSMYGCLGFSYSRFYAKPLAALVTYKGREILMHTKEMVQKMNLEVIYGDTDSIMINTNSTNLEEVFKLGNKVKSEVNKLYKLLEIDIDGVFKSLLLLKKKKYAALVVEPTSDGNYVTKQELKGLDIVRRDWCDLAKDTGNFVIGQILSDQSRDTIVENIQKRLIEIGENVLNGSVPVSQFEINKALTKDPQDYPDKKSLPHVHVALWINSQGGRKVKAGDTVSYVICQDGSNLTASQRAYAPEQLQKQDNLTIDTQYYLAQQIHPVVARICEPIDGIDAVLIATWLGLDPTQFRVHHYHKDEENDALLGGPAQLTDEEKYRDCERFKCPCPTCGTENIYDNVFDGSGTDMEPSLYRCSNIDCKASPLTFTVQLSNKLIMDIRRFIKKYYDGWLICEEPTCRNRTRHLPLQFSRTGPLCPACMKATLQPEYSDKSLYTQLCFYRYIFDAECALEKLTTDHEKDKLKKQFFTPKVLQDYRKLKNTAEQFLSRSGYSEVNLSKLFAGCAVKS

[7] = system: Rauscher murine leukemia virus; test: Inhibition of Rauscher murine leukemia virus reverse transcriptase assessed as incorporation of [3H]dTMP at 1 ug/ml
[8] = biological target: T1, DNA polymerase alpha catalytic subunit (Homo sapiens); test: Inhibition of DNA polymerase alpha from human KB3 cells at 1 ug/ml; format: cell-based
[9] = Inhibition of HIV reverse transcriptase expressed in Escherichia coli by Dixon plot; parameters: species or system Human immunodeficiency virus
[10] = biological target: T2, DNA polymerase beta (Homo sapiens, UniProt P06746); test: Inhibition of DNA polymerase beta from human KB3 cells assessed as non-competitive type inhibition using dTTP as substrate
[11] = biological target: DNA nucleotidylexotransferase (Bos taurus) (UniProt P06526); test: Inhibition of terminal deoxynucleotidyltransferase from calf thymus up to 1 ug/ml
[12] = biological target: T2, DNA polymerase beta; test: Inhibition of DNA polymerase beta from human KB3 cells; format: cell-based
[13] = system: Human immunodeficiency virus; test: Inhibition of HIV reverse transcriptase expressed in Escherichia coli assessed as incorporation of [3H]dTMP at 1 ug/ml
[14] = biological target: T1, DNA polymerase alpha catalytic subunit (Homo sapiens); test: Inhibition of DNA polymerase alpha from human KB3 cells assessed as competitive type inhibition using activated DNA as substrate
[15] = system: Human immunodeficiency virus; test: Inhibition of HIV reverse transcriptase expressed in Escherichia coli assessed as incorporation of [3H]dTMP at 0.2 ug/ml
[16] = biological target: T2, DNA polymerase beta; test: Inhibition of DNA polymerase beta from human KB3 cells assessed as competitive type inhibition using (rA)n.(dT)12-18 as substrate
[17] = system: KB3; test: Inhibition of DNA polymerase gamma from human KB3 cells up to 1 ug/ml; format: cell-based
[18] = biological target: T3, DNA polymerase alpha catalytic subunit (Homo sapiens, UniProt P09884); test: Inhibition of DNA polymerase alpha from human KB3 cells; format: cell-based
T3 sequence (P09884 whole entry): T1 sequence (whole entry)

[19] = biological target: DNA polymerase I (Escherichia coli) (UniProt P00582); test: Inhibition of DNA polymerase-1 from Escherichia coli up to 1 ug/ml
[20] = system: Rauscher murine leukemia virus; test: Inhibition of Rauscher murine leukemia virus reverse transcriptase assessed as incorporation of [3H]dTMP at 10 ug/ml
[21] = system: Human immunodeficiency virus; test: Inhibition of HIV reverse transcriptase expressed in Escherichia coli assessed as incorporation of [3H]dTMP at 10 ug/ml
[22] = system: Human immunodeficiency virus; test: Inhibition of HIV reverse transcriptase expressed in Escherichia coli assessed as competitive inhibition using (rA)n.(dT)12-18 as primer by double reciprocal plot

Chain of DNA nucleotidylexotransferase (Bos taurus) (P06526 whole entry): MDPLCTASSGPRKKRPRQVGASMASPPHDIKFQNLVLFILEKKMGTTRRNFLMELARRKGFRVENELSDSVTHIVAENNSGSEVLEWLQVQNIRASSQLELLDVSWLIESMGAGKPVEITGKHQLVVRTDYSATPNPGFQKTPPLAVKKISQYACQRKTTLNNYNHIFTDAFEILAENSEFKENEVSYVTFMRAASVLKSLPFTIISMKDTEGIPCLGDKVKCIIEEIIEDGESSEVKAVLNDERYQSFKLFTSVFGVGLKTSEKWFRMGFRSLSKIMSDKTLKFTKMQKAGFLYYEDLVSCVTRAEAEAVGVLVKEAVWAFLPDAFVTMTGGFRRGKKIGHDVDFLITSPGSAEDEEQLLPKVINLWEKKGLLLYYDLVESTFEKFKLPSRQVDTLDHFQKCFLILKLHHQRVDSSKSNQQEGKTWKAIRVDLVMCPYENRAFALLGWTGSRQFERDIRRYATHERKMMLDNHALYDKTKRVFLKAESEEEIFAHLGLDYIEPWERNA
Chain of DNA polymerase I (Escherichia coli) (P00582 whole entry): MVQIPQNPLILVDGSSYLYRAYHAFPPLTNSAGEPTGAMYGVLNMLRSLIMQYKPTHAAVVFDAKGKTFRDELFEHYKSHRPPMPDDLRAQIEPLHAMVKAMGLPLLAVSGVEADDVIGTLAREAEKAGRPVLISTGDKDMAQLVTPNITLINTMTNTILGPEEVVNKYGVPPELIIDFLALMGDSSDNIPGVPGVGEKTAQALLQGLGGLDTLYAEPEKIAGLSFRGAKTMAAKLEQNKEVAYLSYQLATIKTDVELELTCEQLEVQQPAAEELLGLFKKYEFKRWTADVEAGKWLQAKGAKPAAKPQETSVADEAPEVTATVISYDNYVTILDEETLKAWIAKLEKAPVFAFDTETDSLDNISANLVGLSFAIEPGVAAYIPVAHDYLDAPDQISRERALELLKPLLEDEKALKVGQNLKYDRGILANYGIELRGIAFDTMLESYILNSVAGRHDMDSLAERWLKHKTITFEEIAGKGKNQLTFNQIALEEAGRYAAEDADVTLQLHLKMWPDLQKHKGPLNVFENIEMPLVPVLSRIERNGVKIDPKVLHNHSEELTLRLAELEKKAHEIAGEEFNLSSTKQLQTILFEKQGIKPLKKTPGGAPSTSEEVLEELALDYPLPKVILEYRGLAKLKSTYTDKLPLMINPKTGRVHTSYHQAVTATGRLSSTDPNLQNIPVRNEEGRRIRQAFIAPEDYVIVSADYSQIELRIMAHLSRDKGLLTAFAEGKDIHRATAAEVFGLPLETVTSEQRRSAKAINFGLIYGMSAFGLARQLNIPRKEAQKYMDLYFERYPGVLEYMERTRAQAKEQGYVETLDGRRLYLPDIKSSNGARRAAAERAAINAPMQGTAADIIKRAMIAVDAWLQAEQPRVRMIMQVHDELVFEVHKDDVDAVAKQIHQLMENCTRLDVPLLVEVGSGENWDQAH

Structure (SMILES): COCCOCCOC(=O)c1cc(O)c(O)c(O)c1
- Activity [1]: inactive
- Activity [2]: inactive

Structure (SMILES): O=C(O)c1cc(O)c(O)c(OC(=O)c2cc(O)c(O)c(O)c2)c1 [DIGALLIC ACID]
- Activity [3]: Active
- Activity [4]: Active
- inhibition [5]: 70%
- Activity [6]: Active
- Activity [7]: Active
- inhibition [8]: > 90%
- Ki [9]: 580 nM
- Activity [10]: Active
- Activity [11]: inactive
- Ki [12]: 390 nM
- Activity [13]: Active
- Activity [14]: Active
- inhibition [15]: 70%
- Activity [16]: Active
- Activity [17]: inactive
- Ki [18]: 830 nM
- Activity [19]: inactive

Structure (SMILES): COCCOCCOCCOC(=O)c1cc(O)c(O)c(O)c1
- Activity [1]: inactive
- Activity [2]: inactive

Structure (SMILES): O=C(O)c1cc(O)c(O)c(O)c1
- Activity [20]: inactive
- Activity [21]: inactive
- Activity [1]: inactive
- Activity [2]: inactive

Structure (SMILES): COCCOCCOC(=O)c1cc(O)c(O)c(OC(=O)c2ccc(O)c(O)c2O)c1
- Activity [4]: Active
- Activity [22]: Active
- Ki [9]: 120 nM
- Activity [1]: Active
- Activity [2]: Active

Structure (SMILES): COCCOCCOc1c(C(=O)Oc2cc(C(=O)O)cc(O)c2O)ccc(O)c1O
- Activity [1]: inactive
- Activity [2]: inactive

Structure (SMILES): COCCOCCOCCOC(=O)c1cc(O)c(O)c(OC(=O)c2ccc(O)c(O)c2O)c1
- Activity [3]: Active
- Activity [4]: Active
- Ki [9]: 390 nM
- Activity [1]: Active
- Activity [2]: Active

Structure (SMILES): COCCOCCOc1c(O)ccc(C(=O)Oc2cc(C(=O)O)cc(O)c2O)c1O
- Activity [1]: inactive
- Activity [2]: inactive

Structure (SMILES): O=C(Oc1cc(O)cc(O)c1C(=O)O)c1ccc(O)c(O)c1
- Activity [1]: inactive
- Activity [2]: inactive
